From ChEMBL document CHEMBL1122087, “Computer graphics in drug design: molecular modeling of thyroid hormone-prealbumin interactions” (J Med Chem, 1982)

What follows are compounds tested against Transthyretin (Homo sapiens) (UniProt P02766) (assay: Ability to displace L-[125I]thyoxine from the high affinity prealbumin binding site was expressed as ratio of its apparent association constant to that of L-thyroxine).

With `NC(Cc1cc(I)c(Oc2cccc3ccc(O)cc23)c(I)c1)C(=O)O` (configuration not stated) the Ka(T4) was 0.7%.

The compounds below were run against Transthyretin (Homo sapiens) (UniProt P02766) (assay: Ability to displace L-[125I]thyoxine from the high affinity prealbumin binding site was expressed as ratio of its apparent association constant to that of DL-thyroxine).

Point of comparison: `NC(Cc1cc(I)c(Oc2ccc(O)c(Br)c2)c(I)c1)C(=O)O` (configuration not stated), Ka(T4) 1.6%. Against it:
- NC(Cc1cc(I)c(Oc2cc(Br)c(O)c(Br)c2)c(I)c1)C(=O)O (configuration not stated) — higher, 8.6%
- NC(Cc1cc(I)c(Oc2cccc3c(O)cccc23)c(I)c1)C(=O)O (configuration not stated) — higher, 6.3%
- NC(Cc1cc(I)c(Oc2ccc(O)cc2)c(I)c1)C(=O)O (configuration not stated) — lower, 0.3%
- NC(Cc1cc(I)c(Oc2ccc(O)c3ccccc23)c(I)c1)C(=O)O (configuration not stated) — the same, 1.6%
- NC(Cc1cc(I)c(Oc2cc(Br)c(O)c3ccccc23)c(I)c1)C(=O)O (configuration not stated) — higher, 28.7%
